Source: patent US20250210194A1, “METHODS AND SYSTEMS FOR D[…] HETEROGENEITY” (Foundation Medicine, Inc., priority 2022, published 2025)

Test system: EGFR driver alteration-positive NSCLC patients
Assay: Progression free survival (PFS) from start of 1st line Osimertinib in a real-world NSCLC patient cohort (Kaplan Meier)
Assay type: in vivo, human
Conditions: for median progression free survival (mPFS): 45 patients, 1st line Osimertinib
From the text: Starting with a patient cohort of 15,035 patients, the data was filtered (for biopsy type and bait set). The data was then filtered to exclude data for patients for whom a computational tumor purity was less than or equal to 20% or for whom a computational tumor purity value was missing. The remaining patient data was divided according to whether the samples were early-stage specimens, late-stage specimens, or of ambiguous origin. For the late-stage specimens, data for patients who were first diagnosed prior to Jan. […] Finally, data was selected for N=135 1st line Osimertinib-treated, EGFR driver alteration-positive NSCLC patients for whom tumor samples were sequenced at most a year prior to start of therapy.
The group of 135 patients were then divided into three tertiles with 45 patients each. Progression free survival (PFS) from start of 1st line Osimertinib was determined as follows: • Index state was the start of 1st line therapy. • Progression date: for patients who received a subsequent line of therapy, the event date was the earliest progression event that occurred more than 14 days after the index date, or date of death, provided that the progression event or date of death occurred before the start date of the subsequent line of therapy plus 14 days. For patients without a subsequent line of therapy, the event date was the earliest progression event that occurred more than 14 days after the index date, or the date of death. • Censor date: patients with a subsequent line of therapy were censored at their last clinic note date if it occurred between the index date and the start date of the subsequent line of therapy plus 14 days. Patients for whom the last clinic note date was not available within this window were censored at their last date of confirmed structured activity (i.e., the last available visit date within the Visit Table) within this time window. Patients without a subsequent line of therapy were censored at their last clinic note date.

C=CC(=O)Nc1cc(Nc2nccc(-c3cn(C)c4ccccc34)n2)c(OC)cc1N(C)CCN(C)C [Osimertinib]
median progression free survival (mPFS) (first tertile (lowest tumor heterogeneity score)): 16.5 months | median PFS (high score group: tumor heterogeneity score >=1, 1st line Osimertinib): 10.8 months | median PFS (low score group: tumor heterogeneity score <1, 1st line Osimertinib): 16.0 months | mPFS (score category High (THS >=1), EGFR CCF category High (CCF >=0.5), N=74): 11.11 | mPFS (score category High (THS >=1), EGFR CCF category Low (CCF <0.5), N=12): 6.54 months | mPFS (score category Low (THS <1), EGFR CCF category High (CCF >=0.5), N=39): 16.01 months | median progression free survival (mPFS) (second tertile (intermediate tumor heterogeneity score)): 10.5 months | median progression free survival (mPFS) (third tertile (highest tumor heterogeneity score)): 11.9 months | Median progression free survival (mPFS) from start of 1st line Osimertinib (whole cohort, N=135 EGFR driver alteration-positive NSCLC patients): 12.7 months
